Measured values from patent US10464896B2, “Efflux-pump inhibitors and therapeutic uses thereof” (Basilea Pharmaceutica International AG, priority 2015, dated 2019).

Columns and labels:
E. coli ATCC25922 = assay: Antibacterial activity in combination with minocycline (growth inhibition); assay type: cell-based; settings: Escherichia coli, minocycline 0.25 μg/mL, OD625 23 h minus 1 h, read-out: residual growth of E. coli ATCC25922 (% of uninhibited control) with minocycline; for activity at 50 µM: ATCC25922, compound at 50 μM; for activity at 25 µM: ATCC25922, compound at 25 μM
Outline: (§1)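 Test compound combined with fixed subinhibitory partner antibiotic: linezolid 128 μg/mL for either strain, minocycline 0.25 μg/mL (E. coli) or 8 μg/mL (P. aeruginosa), in caMHB shaken at 37 °C. Residual growth as % of inhibitor-free control, from OD625 at 23 h minus 1 h.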

P. aeruginosa PAO1 = assay: as above; assay type: cell-based; settings: Pseudomonas aeruginosa, PAO1, compound at 50 μM; minocycline 8 μg/mL; OD625 23 h minus 1 h; read-out: residual growth of P. aeruginosa PAO1 (% of uninhibited control) with minocycline
Outline: as §1

| SMILES | activity at 50 µM (E. coli ATCC25922) | activity at 50 µM (P. aeruginosa PAO1) | activity at 25 µM (E. coli ATCC25922) |
| --- | --- | --- | --- |
| COc1cc(C#N)ccc1COc1cccc(CNCC2CNC2)c1 [Example 26] | ≤ 50% | ≤ 50% |  |
| Clc1ccc(COc2cccc(CCNCC3CNC3)c2)cc1 [Example 28] |  | ≤ 50% | ≤ 10% |
| CC(C)(c1ccccc1)c1ccc(OCCNCC2CNC2)cc1 [Example 50] | ≤ 50% | ≤ 50% |  |
| CC(C)(C)c1ccc(COc2ccc(CNCC3CCNCC3)cc2)cc1 [Example 57] |  | ≤ 50% | ≤ 10% |
| Clc1ccc(-c2cccc(CNCC3CCNC3)c2)c(Br)c1 (stereo not shown) [Example 74] |  | ≤ 50% | ≤ 10% |
| Clc1ccc(Oc2ccc(CNCC3CCNC3)cc2)c(Br)c1 (stereo not shown) [Example 82] |  | ≤ 50% | ≤ 10% |
| COC(=O)c1ccc(COc2ccc(CNCC3CNC3)cc2)c(Br)c1 [Example 87] | ≤ 50% | ≤ 50% |  |
| Clc1ccc(Oc2ccccc2CNCC2CNC2)c(Br)c1 [Example 89] | ≤ 50% | ≤ 50% |  |
| Clc1ccc(OCc2ccc(CNCC3CNC3)o2)c(Br)c1 [Example 93] |  | ≤ 50% |  |
| CS(=O)(=O)c1ccc(COc2cccc(CNCC3CNC3)c2)c(Cl)c1 [Example 102] |  | ≤ 50% |  |
| COCc1cc(CNCC2CNC2)cc(OCc2ccc(Cl)cc2Br)c1 [Example 124] |  | ≤ 50% | ≤ 10% |
| FC(F)(F)c1cc(Cl)ccc1COc1cccc(CNCC2CNC2)c1 [Example 131] |  | ≤ 50% | ≤ 10% |
| Clc1ccc(NCc2cccc(CNCC3CNC3)c2)c(Br)c1 [Example 170] |  | ≤ 50% | ≤ 10% |
| Clc1ccc(COCc2cccc(CNCC3CNC3)c2)c(Br)c1 [Example 173, N-(azetidin-3-ylmethyl)-1-[3-[(2-bromo-4-chloro-phenyl)methoxymethyl]phenyl]methanamine] |  | ≤ 50% | ≤ 10% |
| Clc1ccc(COc2cccc(CNCC3CNC3)c2)c(Cl)c1 [Example 177] |  | ≤ 50% | ≤ 10% |
| Ic1ccc(COc2cccc(CNCC3CNC3)c2)cc1 [Example 206] |  | ≤ 50% |  |
| O=C(O)c1ccc(COc2cc(CNCC3CNC3)cc(OCc3ccc(Cl)cc3Br)c2)cc1 [Example 208] |  | ≤ 50% |  |

| SMILES | activity at 50 µM (E. coli ATCC25922) | activity at 50 µM (P. aeruginosa PAO1) | activity at 25 µM (E. coli ATCC25922) |
| --- | --- | --- | --- |
| Ic1cccc(COc2cccc(CNCC3CNC3)c2)c1 [Example 219] |  | ≤ 50% | ≤ 10% |
| Brc1ccccc1COc1cccc(CNCC2CCNC2)c1 (stereo not shown) [Example 220] |  | ≤ 50% |  |
| Ic1cccc(COc2cccc(CNCC3CCNC3)c2)c1 (stereo not shown) [Example 221] |  | ≤ 50% | ≤ 10% |
| CC(C)(C)c1ccc(COc2cccc(CNCC3CNC3)c2)cc1 [Example 222] |  | ≤ 50% | ≤ 10% |
| CC(C)(C)c1ccc(COc2cccc(CNC3CCNCC3)c2)cc1 [Example 223] |  | ≤ 50% | ≤ 10% |
| C=CCOc1cc(/C=C/c2cccc(OC)c2)cc(CNCC2CNC2)c1 [Example 276] |  | ≤ 50% | ≤ 10% |
| CC(C)(C)c1ccc(COc2cc(CNCC3CNC3)cc(OCCN3CCOCC3)c2)cc1 [Example 277] |  | ≤ 50% | ≤ 10% |
| C=CCOc1cc(/C=C/c2ccccc2OC)cc(CNCC2CNC2)c1 [Example 285] |  | ≤ 50% | ≤ 10% |
| C[N+]1(C)CC(OCc2cc(CNCC3CNC3)cc(OCc3ccc(Cl)cc3Br)c2)CC1C(=O)O (stereo not shown) [Example 288] | ≤ 50% | ≤ 50% |  |
| N#Cc1ccc(/C=C/c2cccc(CNCC3CCNC3)c2)c(C(F)(F)F)c1 (stereo not shown) [Example 314] |  | ≤ 50% | ≤ 10% |
| C=CCOc1cc(/C=C/c2cnccc2C#N)cc(CNCC2CCNC2)c1 (stereo not shown) [Example 316] |  | ≤ 50% | ≤ 10% |
| C=CCOc1cc(/C=C/c2cccs2)cc(CNCC2CCNC2)c1 (stereo not shown) [Example 319] |  | ≤ 50% | ≤ 10% |
| C=CCOc1cc(CNCC2CCNC2)cc(CNC(=O)c2ccc(Cl)cc2Br)c1 (stereo not shown) [Example 349] |  | ≤ 50% |  |
| C=CCOc1cc(CNCC2CNC2)cc(OCc2cc(C)on2)c1 [Example 420] |  | ≤ 50% |  |
| C=CCOc1cc(CNCC2CCNC2)cc(OCCc2ccncc2)c1 (stereo not shown) [Example 424] |  | ≤ 50% |  |
| c1cncc(COc2cc(CNCC3CNC3)cc(OCCc3ccncc3)c2)c1 [Example 425] |  | ≤ 50% |  |
| C=CCOc1cc(CNCC2CNC2)cc(OCc2cncc(C(N)=O)c2)c1 [Example 437] |  | ≤ 50% |  |
